Results published in US4485109A, “4-Aryl-4-piperidinecarbinols” (E. I. Du Pont de Nemours and Company, priority 1983, dated 1984).
Read-outs that look alike come from different tables or passages of the source.

Experiments:
[1] = tested on: tetrabenazine-induced depression; assay: Antagonism (prevention) of tetrabenazine-induced sedation and depression in mice, orally; type: in vivo, mice (Carworth CF1 S female); conditions: Mus musculus, 1 h, tetrabenazine 32 mg/kg i.p. 30 min after compound
Text: A standard procedure for detecting and comparing the antidepressant activity of the compounds of this invention, for which there is good correlation with human efficacy, is the prevention of tetrabenazine-induced sedation and depression in mice. (Everett, "The Dopa Response Potentiation Test and Its Use in Screening for Antidepressant Drugs", pp. 164-167 in Antidepressant Drugs [Proceedings of the First International Symposium], S. Garattini and M. N. G. Dukes (editors), 1967).
Groups of 10 Carworth CF1 S female mice, 18-21 g each, each fasted 1.5 h and were intubated with antagonist compounds at oral doses, such as 0, 1, 3, 9, 27 and 81 mg/kg in 0.20 mL of 1% Methocel® (methylcellulose).The mice were challenged 30 minutes later with tetrabenazine (as the methanesulfonate), 32 mg/kg intraperitoneally (dissolved in 0.20 mL 0.05% aqueous KCl at pH 2.0). One hour after administration of antagonist (30 minutes after administration of tetrabenazine) the mice were examined for signs of exploratory activity and ptosis (eye lid closure). Normal exploratory activity (relief from sedation) was recorded when a mouse, lifted by the tail from a group of 10 in a testing box and placed on a stainless steel testing box lid (12.5 inch (31.8 cm) by 8 inch (20.3 cm) with 0.33 inch mesh), either turned its head horizontally 30° in both directions or moved to the edge of the screen within 10 seconds after being placed on the screen. Relief from ptosis was recorded when, at exactly two seconds after placing the mouse facing the observer, lid closure was less than 50% in both eyes.

[2] = Anorexia test from CNS screen (milk consumption in fasted mice); type: in vivo; conditions: Mus musculus, po, 0.5 h, fasted female mice, 0.5 h after dosing, 30 min milk access, ED50 estimated from quantal responses
Procedure: Female mice weighing 16-20 grams and fasted overnight for 17-21 h are used in these studies. At 0.5 h after administration of graded oral doses of compound prepared in aqueous Methocel® (methylcellulose, viscosity 100 CPS, grade MC, Dow Chemical Co.) and 2.8% Tween 80 and dosed at 0.1 mL per 10 grams of body weight, each mouse is transferred to an individual, clear, Lucite® compartment (13.3 cm×12.7 cm×12.7 cm) with a 0.64 cm×0.64 cm wire mesh floor. Five compartments are linearly arranged in each cage unit. Inside each compartment is a section of a black Lucite® bar (13 cm×1.2 cm×1.2 cm), in the top of which are ten spot depressions (0.8 cm diameter), each containing 0.05 mL of 50% sweetened condensed milk (Borden's Eagle Brand). 30 Minutes later the mice are returned to the "shoe-box" containers and the number of milk spots consumed by each mouse is counted. Fractions of spots consumed are also estimated and counted. Five mice […] per drug dose can drink a maximum of 50 spots (2.5 mL of milk). Nine or fewer spots consumed by 5 mice is considered to indicate anorexia. ED50 values are estimated based on the quantal responses obtained.

[3] = po, read-out: ORAL ED50 for prevention of exploratory loss, mice, oral, at one hour post-drug
[4] = po, read-out: ORAL ED50 for prevention of ptosis, mice, oral, at one hour post-drug

COc1cccc(C2(C3(O)CCCCCC3)CCN(C)CC2)c1 [Example 27, 1-[1'-Methyl-4'-(3"-methoxyphenyl)-4'-piperidinyl]cycloheptanol]
ED50 [1, 3]: 1.4 mg/kg
ED50 [1, 4]: 0.9 mg/kg

CN1CCC(c2cccc(C(F)(F)F)c2)(C(C)(C)O)CC1 [Example 2, 4-(3'-Trifluoromethylphenyl)-α,α,1-trimethyl-4-piperidinemethanol]
ED50 [1, 3]: 0.01 mg/kg
ED50 [1, 4]: 0.016 mg/kg
ED50 [2]: 60 mg/kg

CN1CCC(c2ccc(-c3ccccc3)cc2)(C(C)(C)O)CC1 [Example 42, 4-(4'-Biphenylyl)-α,α,1-trimethyl-4-piperidinemethanol]
ED50 [1, 3]: 1.5 mg/kg
ED50 [1, 4]: 1 mg/kg

COc1cccc(C2(C(C)(C)O)CCN(C)CC2)c1OC [Example 20, 4-(2',3'-Dimethoxyphenyl)-α,α,1-trimethyl-4-piperidinemethanol]
ED50 [1, 3]: 4.6 mg/kg
ED50 [1, 4]: 2.1 mg/kg

COc1cccc(C2(C(C)(C)O)CCN(C)CC2C)c1 (stereo not drawn) [Example 43, 4-(3'-Methoxyphenyl)-α,α,1,3-tetramethyl-4-piperidinemethanol]
ED50 [1, 3]: 7.2 mg/kg
ED50 [1, 4]: 5.8 mg/kg

CN(C)CCC=C1c2ccccc2CCc2ccccc21 [Amtriptyline, reference compound]
ED50 ([1]; mice, oral, at one hour post-drug, read-out: ORAL ED50 for prevention of exploratory loss): 2.7 mg/kg
ED50 ([1]; mice, oral, at one hour post-drug, read-out: ORAL ED50 for prevention of ptosis): 0.7 mg/kg

Cc1ccc(C2(C(C)(C)O)CCN(C)CC2)s1 [Example 25, 4-(5'-Methyl-2'-thienyl)-α,α,1-trimethyl-4-piperidinemethanol]
ED50 [1, 3]: 0.99 mg/kg
ED50 [1, 4]: 0.69 mg/kg

COc1cccc(C2(C3(O)CCCCC3)CCN(C)CC2)c1 [Example 35, 1[1'-Methyl-4'-(3"-methoxyphenyl)-4'-piperidine]cyclohexanol]
ED50 [1, 3]: 1.4 mg/kg
ED50 [1, 4]: 1.1 mg/kg

CN1CCC(c2ccc(N(C)C)cc2)(C(C)(C)O)CC1 [Example 33, 4-(4'-Dimethylaminophenyl)-α,α,1-trimethyl-4-piperidinemethanol]
ED50 [1, 3]: 0.78 mg/kg
ED50 [1, 4]: 0.35 mg/kg

COc1cccc(C2(C3(O)CCCC3)CCN(C)CC2)c1OC [Example 3, 1-[1'-Methyl-4'-(2",3"-dimethoxyphenyl)-4'-piperidinyl]cyclopentanol]
ED50 [1, 3]: 14 mg/kg
ED50 [1, 4]: 2.8 mg/kg

COc1ccc(OC)c(C2(C(C)(C)O)CCN(C)CC2)c1 [Example 29, 4-(2',5'-Dimethoxyphenyl)-α,α,1-trimethyl-4-piperidinemethanol]
ED50 [1, 3]: 0.99 mg/kg
ED50 [1, 4]: 0.86 mg/kg

CN(C)CCCN1c2ccccc2CCc2ccccc21 [Imipramine, reference compound]
ED50 [1, 3]: 2.2 mg/kg
ED50 [1, 4]: 0.94 mg/kg

CC1CCC(O)(C2(c3cccc(C(F)(F)F)c3)CCN(C)CC2)C1 (single isomer, unassigned; (-)) [Example 47, (-)-cis and trans-3-Methyl-1-[1'-methyl-4'-(3"-trifluoromethylphenyl)-4'-piperidinyl]cyclopentanol]
ED50 [1, 3]: < 1 mg/kg
ED50 [1, 4]: < 1 mg/kg

COc1ccc(C2(C(C)(C)O)CCN(C)CC2)cc1 [Example 19, 4-(4'-Methoxyphenyl)-α,α,1-trimethyl-4-piperidinemethanol]
ED50 [1, 3]: 1.1 mg/kg
ED50 [1, 4]: 0.33 mg/kg

COc1cccc(C2(C3(O)CCCCC3)CCN(C)CC2)c1OC [Example 23, 1-[1'-Methyl-4'-(2",3"-dimethoxyphenyl)-4'-piperidinyl]cyclohexanol]
ED50 [1, 3]: 38 mg/kg
ED50 [1, 4]: 17 mg/kg

Cc1ccc(C2(C(C)(C)O)CCN(C)CC2)cc1C [Example 13, 4-(4'-o-Xylyl)-α,α,1-trimethyl-4-piperidinemethanol]
ED50 [1, 3]: 0.3 mg/kg
ED50 [1, 4]: 0.23 mg/kg

CCC(O)(CC)C1(c2cccc(OC)c2)CCN(C)CC1 [Example 18, 4-(3'-Methoxyphenyl)-α,α-diethyl-1-methyl-4-piperidinemethanol]
ED50 [1, 3]: 0.71 mg/kg
ED50 [1, 4]: 0.71 mg/kg

COc1cccc(C2(C3(O)CCCCCCC3)CCN(C)CC2)c1 [Example 28, 1-[1'-Methyl-4'-(3"-methoxyphenyl)-4'-piperidinyl]cyclooctanol]
ED50 [1, 3]: 3.8 mg/kg
ED50 [1, 4]: 1.7 mg/kg

CCOc1cccc(C2(C(C)(C)O)CCN(C)CC2)c1 [Example 40, 4-(3'-Ethoxyphenyl)-α,α,1-trimethyl-4-piperidinemethanol]
ED50 [1, 3]: 0.9 mg/kg
ED50 [1, 4]: 0.9 mg/kg

CC(C)(O)C1(c2cccc(C(F)(F)F)c2)CCN2CCCC2C1 (stereo not drawn) [Example 45, 7-(3'-Trifluoromethylphenyl)-α,α-dimethyl-7-indolizidinemethano]
ED50 [1, 3]: < 0.33 mg/kg
ED50 [1, 4]: 0.48 mg/kg

CN1CCC(c2cccc(-c3ccccc3)c2)(C(C)(C)O)CC1 [Example 36, 4-(3'-Biphenylyl)-α,α,1-trimethyl-4-piperidinemethanol]
ED50 [1, 3]: 1.1 mg/kg
ED50 [1, 4]: 0.66 mg/kg

COc1ccccc1C1(C(C)(C)O)CCN(C)CC1 [Example 15, 4-(2'-Methoxyphenyl)-α,α,1-trimethyl-4-piperidinemethanol]
ED50 [1, 3]: 2.3 mg/kg
ED50 [1, 4]: 0.57 mg/kg

COc1cccc(C2(C(C)(C)O)CCNCC2)c1 [Example 14, 4-(3'-Methoxyphenyl)-α,α-dimethyl-4-piperidinemethanol]
ED50 [1, 3]: 4.4 mg/kg
ED50 [1, 4]: 2.7 mg/kg

Cc1cc(C)cc(C2(C(C)(C)O)CCN(C)CC2)c1 [Example 12, 4-(5'-m-Xylyl)-α,α,1-trimethyl-4-piperidinemethanol]
ED50 [1, 3]: 0.11 mg/kg
ED50 [1, 4]: 0.064 mg/kg

CN1CCC(c2ccc(F)cc2)(C(C)(C)O)CC1 [Example 5, 4-(4'-Fluorophenyl)-α,α,1-trimethyl-4-piperidinemethanol]
ED50 [1, 3]: 0.48 mg/kg
ED50 [1, 4]: 0.33 mg/kg

Cc1ccc(C2(C(C)(C)O)CCN(C)CC2)cc1 [Example 11, 4-(4'-Tolyl)-α,α,1-trimethyl-4-piperidinemethanol]
ED50 [1, 3]: 0.69 mg/kg
ED50 [1, 4]: 0.57 mg/kg

CN1CCC(c2cccn2C)(C(C)(C)O)CC1 [Example 24, 4-(1'-Methyl-2'-pyrrolyl)-α,α,1-trimethyl-4-piperidinemethanol]
ED50 [1, 3]: 1.2 mg/kg
ED50 [1, 4]: 0.78 mg/kg

COc1cccc(C2(C3(O)CCC3)CCN(C)CC2)c1 [Example 22, 1-[1'-Methyl-4'-(3"-methoxyphenyl)-4'-piperidinyl]cyclobutanol]
ED50 [1, 3]: 0.92 mg/kg
ED50 [1, 4]: 0.67 mg/kg

COc1cccc(C2(C3(O)CCCC3)CCN(Cc3ccccc3)CC2)c1OC [Example 38, 1-[1'-Benzyl-4'-(2",3"-dimethoxyphenyl)-4'-piperidinyl]cyclopentanol]
ED50 [1, 3]: > 81 mg/kg
ED50 [1, 4]: > 81 mg/kg

Cc1cccc(C2(C(C)(C)O)CCN(C)C(C)C2)c1 (stereo not drawn) [Example 44, 4-(3'-Tolyl)-α,α,1,2-tetramethyl-4-piperidinemethanol]
ED50 [1, 3]: 0.33 mg/kg
ED50 [1, 4]: 0.33 mg/kg

CN1CCC(c2cccnc2)(C(C)(C)O)CC1 [Example 26, 4-(3'-Pyridyl)-α,α,1-trimethyl-4-piperidinemethanol]
ED50 [1, 3]: 29 mg/kg
ED50 [1, 4]: 18 mg/kg

COc1cccc(C2(C3(O)CCCC3)CCN(C)CC2)c1 [Example 34, 1[1'-Methyl-4'-(3"-methoxyphenyl)-4'-piperidine]cyclopentanol]
ED50 [1, 3]: 0.48 mg/kg
ED50 [1, 4]: 0.45 mg/kg

CSc1ccc(C2(C(C)(C)O)CCN(C)CC2)cc1 [Example 21, 4-(4'-Methylthiophenyl)-α,α,1-trimethyl-4-piperidinemethanol]
ED50 [1, 3]: 1.3 mg/kg
ED50 [1, 4]: 1.3 mg/kg

CN1CCC(c2ccccc2)(C(C)(C)O)CC1 [Example 1, 4-Phenyl-α,α,1-trimethyl-4-piperidinemethanol]
ED50 [1, 3]: 5.6 mg/kg
ED50 [1, 4]: 0.78 mg/kg

Cc1ccccc1C1(C(C)(C)O)CCN(C)CC1 [Example 9, 4-(2'-Tolyl)-α,α,1-trimethyl-4-piperidinemethanol]
ED50 [1, 3]: 0.48 mg/kg
ED50 [1, 4]: 0.33 mg/kg

CC1CCC(O)(C2(c3cccc(C(F)(F)F)c3)CCN(C)CC2)C1 (racemic) [Example 46, (±)-cis and trans-3-Methyl-1-[1'-methyl-4'-(3"-trifluoromethylphenyl)-4'-piperidinyl]cyclopentanol]
ED50 [1, 3]: < 1 mg/kg
ED50 [1, 4]: < 1 mg/kg
